From patent US9221792B2, “N-(4-(azetidine-1-carbonyl) phenyl)-(hetero-) arylsulfonamide derivatives as pyruvate kinase M2 (PMK2) modulators” (AGIOS PHARMACEUTICALS, INC, priority 2010, dated 2015)

Target: PKM2 (Homo sapiens, UniProt P14618)
Assay: PKM2 Assay (activation, LDH-coupled NADH absorbance at 340 nm)
Assay type: biochemical
Settings: activation of PKM2; PKM2 50 ng/well, ADP 0.7 mM, PEP 0.15 mM, room temperature (25° C.); read-out: AC50
Procedure: • PKM2 stock enzyme solution was diluted in Reaction Buffer • 2 μL of compound was added into each well first, and then 180 μL of the Reaction Mix was added. • Reaction mixture with compound (without ADP) were incubated for 30 minutes at 4° C. • Plates were re-equilibrated to room temperature prior to adding 20 μL ADP to initiate the reaction. • Reaction progress was measured as changes in absorbance at 340 nm wavelength at room temperature (25° C.) Reaction Mix: PKM2 (50 ng/well), ADP (0.7 mM), PEP (0.15 mM), NADH (180 μM), LDH (2 units) in Reaction Buffer Reaction Buffer: 100 mM KCl, 50 mM Tris pH 7.5, 5 mM MgCl2, 1 mM DTT, 0.03% BSA.
Certain compounds of Formula I were tested in the above-described assay. A compound described herein may be tested for its ability to activate PKM2. The activation activity of these compounds is represented as an AC50 in Table 2 and throughout the application. […] “B” refers to an activator of PKM2 with an EC50 between 100 nM and 1 μM. “C” refers to an activator of PKM2 with an EC50 between 1 μM and 10 μM. “D” refers to an activator of PKM2 with an EC50 greater than 10 μM. “NA” refers to data that is not available.

Sequence of PKM2 (P14618 whole entry): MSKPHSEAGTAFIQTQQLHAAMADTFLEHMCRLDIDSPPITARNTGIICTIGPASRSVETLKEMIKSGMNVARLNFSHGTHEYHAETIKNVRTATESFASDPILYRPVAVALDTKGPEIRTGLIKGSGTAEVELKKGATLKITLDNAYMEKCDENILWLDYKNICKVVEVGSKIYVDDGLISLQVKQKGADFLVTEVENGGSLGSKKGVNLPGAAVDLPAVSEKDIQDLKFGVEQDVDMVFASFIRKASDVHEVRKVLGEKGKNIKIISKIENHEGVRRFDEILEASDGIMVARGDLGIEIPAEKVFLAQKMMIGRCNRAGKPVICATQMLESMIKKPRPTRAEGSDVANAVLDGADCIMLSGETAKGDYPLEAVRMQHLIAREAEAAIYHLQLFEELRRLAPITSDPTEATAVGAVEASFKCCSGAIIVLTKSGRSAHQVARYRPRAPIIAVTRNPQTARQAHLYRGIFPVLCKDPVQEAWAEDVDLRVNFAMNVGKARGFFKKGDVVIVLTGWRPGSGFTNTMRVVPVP

Compound	AC50
COc1cc(C(=O)N2CC(OC(=O)Nc3ccccn3)C2)ccc1NS(=O)(=O)c1cccc2cccnc12 [Compound 156, 1-(3-Methoxy-4-(quinoline-8-sulfonamido)benzoyl)azetidin-3-yl pyridin-2-ylcarbamate]	100 to 1000 nM
COc1cc(NS(=O)(=O)c2cccc3cccnc23)ccc1C(=O)N1CC(C)(O)C1 [Compound 127]	1000 to 10000 nM
Cc1cc(C(=O)N2CC(C)(O)C2)ccc1NS(=O)(=O)c1cccc2cccnc12 [Compound 144]	1000 to 10000 nM
Cc1cc(C(=O)N2CC(N(C)Cc3ccccc3)C2)ccc1NS(=O)(=O)c1cccc2cccnc12 [Compound 109, N-(4-(3-(benzyl(methyl)amino)azetidine-1-carbonyl)-2-methylphenyl)quinoline-8-sulfonamide]	100 to 1000 nM
O=C(c1ccc(NS(=O)(=O)c2cccc3cccnc23)cc1)N1CC(Nc2ccccc2)C1 [Compound 112]	< 100 nM
COC1(Cc2ccccc2)CN(C(=O)c2ccc(NS(=O)(=O)c3cccc4cccnc34)cc2)C1 [Compound 105, N-(4-(3-benzyl-3-methoxyazetidine-1-carbonyl)phenyl)quinoline-8-sulfonamide]	100 to 1000 nM
CN(Cc1ccccc1)C1CN(C(=O)c2ccc(NS(=O)(=O)c3cccc4cccnc34)cc2)C1 [Compound 146]	100 to 1000 nM
O=C(c1ccc(S(=O)(=O)Nc2cccc3cccnc23)cc1)N1CC(OCc2ccccc2)C1 [Compound 119]	1000 to 10000 nM
Cc1cc(C(=O)N2CC(Nc3ccccn3)C2)ccc1NS(=O)(=O)c1cccc2cccnc12 [Compound 151]	< 100 nM
COc1ccccc1NC1CN(C(=O)c2ccc(S(=O)(=O)Nc3cccc4cccnc34)cc2)C1 [Compound 116]	> 10000 nM
Cc1cc(C(=O)N2CC(Nc3ccccc3)C2)ccc1NS(=O)(=O)c1cccc2cccnc12 [Compound 145]	< 100 nM
Cc1cc(C(=O)N2CC(O)(c3ccccc3)C2)ccc1NS(=O)(=O)c1cccc2cccnc12 [Compound 137]	100 to 1000 nM
Cc1cc(C(=O)N2CC(NC(=O)NC(C)C)C2)ccc1NS(=O)(=O)c1cccc2cccnc12 [Compound 164]	100 to 1000 nM
O=C(c1ccc(NS(=O)(=O)c2cccc3cccnc23)c(F)c1)N1CC(Nc2ccccc2)C1 [Compound 118]	100 to 1000 nM
COc1cc(NS(=O)(=O)c2cccc3cccnc23)ccc1C(=O)N1CC(OC(=O)NC(C)C)C1 [Compound 133, 1-(2-Methoxy-4-(quinoline-8-sulfonamido)benzoyl)azetidin-3-yl isopropylcarbamate]	100 to 1000 nM
O=C(c1ccc(NS(=O)(=O)c2cccc3cccnc23)cc1)N1CC(O)C1 [Compound 141]	> 10000 nM
O=C(c1ccc(NS(=O)(=O)c2cccc3cccnc23)cc1)N1CC(O)(c2ccccc2)C1 [Compound 136]	100 to 1000 nM
O=C(c1ccc(NS(=O)(=O)c2cccc3cccnc23)cc1)N1CC(Oc2ccccc2)C1 [Compound 100]	100 to 1000 nM
